Converted amounts (≈) assume the structure as drawn. Each block holds one molecule with its values, some of them ahead of it.
Assays:
[1] = Description: In a flask, 10 g of PVP (k value of 17) was added to 990 grams of propylene glycol. This mixture was stirred until the PVP was completely dissolved. Two hundred fifty (250) mg of compound A (Table 1) was added to 10 ml of the above solution and the mixture was stirred until compound A was completely dissolved. This solution is called Indolocarbazole Propylene Glycol Concentrate (IPGC).
To test for the stability of an indolocarbazole in this solution, 1 ml aliquots of IPGC were removed and placed in small amber colored vials and kept at 4° C room temperature (about 25° C.), 37° C, and 60° C for 4, 7, 14 and 30 days. The sample at 4° C was kept in a refrigerator and received light when a door was opened. The sample at room temperature was placed on the laboratory bench and exposed to the fluorescent lights of the room during the day. The samples at 37° C and 60° C were kept in small incubators essentially in the dark. A 1 ml aliquot of the same IPGC was added to a clear vial and that vial was kept at 25° C in 300 foot candles of light for 4, 7, 14 and 30 days. At each interval of time, an aliquot of IPGC was removed from each vial, diluted 200 fold in DMSO and the concentration of compound A determined by reversed phase HPLC using a UV detector (290 nm).
In this example, compound A was further diluted in Indolocarbazole Diluent Solution. […]

physchem = conditions: organic solvent or mixture
Description: In general, a solution of the concentrate can be prepared by combining a dispersant such as polyvinylpyrrolidone C-30 and a selected organic solvent such as propylene glycol into a beaker. The mixture is continuously stirred until completely dissolved. Solid PVP or other solution components may take 1-2 hours to dissolve completely at room temperature.
An amount of an indolocarbazole, for example, staurosporine, K-252a, or any one of indolocarbazole A, B, or C (Table 1) can each be individually weighed and added to a small aliquot of the aqueous solution, resulting in a 10 mg/ml solution after the indolocarbazole completely dissolves. Alternatively, a mixture of indolocarbazoles may be combined, weighed, and added to a small aliquot of the aqueous solution resulting in a 10 mg/ml solution after the indolocarbazole completely dissolves. An indolocarbazole solution can be stirred or shaken vigorously overnight. Any undissolved indolocarbazole is removed by standard centrifugation or filtration techniques. The concentration of solubilized indolocarbazole can be determined by reversed phase HPLC using a UV detector (290 nm).
The following HPLC conditions are used to determine the concentration of an indolocarbazole:
HPLC Column: Zorbax Rx C-18 4.6×250 mm, 5 micron particle size
Prior to injection of an indolocarbazole solution, there is allowed a 10 minute equilibration time.
Fifty g of PEG-400 were added to 50 ml of water and the mixture vigorously stirred until completely dissolved. One mg of either K-252a, staurosporine or the indolocarbazoles B or C (see Table 1) were added individually to a 100 μl aliquot of the PEG-400 solution and the resulting mixture was shaken overnight. The solution was clarified by centrifugation at 1000 rpm for 10 minutes. The supernatant was saved and any residue discarded. Ten μl of the supernatant was removed, diluted with DMSO (100:1) and the concentration of dissolved K-252a determined by HPLC.
Same as example 1 except that PEG-600 was used instead of PEG-400.
Same as example 1 except that PEG-1000 was used instead of PEG-400.
Same as example 1 except that 48 ml of water was used and 2 g of benzyl alcohol was added to the PEG-400 solution.
Same as example 2 except that 48 ml of water was used and 2 g of benzyl alcohol was added to the PEG-600 solution.
Same as example 3 except that 48 ml of water was used and 2 g of benzyl alcohol was added to the PEG-1000 solution.
2.5 g of benzyl alcohol was added to 47.5 g of PEG-400 and, in a separate container, 2.5 g of Pluronic F68 was added to 47.5 ml of water. Each solution was stirred until completely dissolved, then each solution was combined and stirred until homogeneous. One mg of K-252a was added to 100 μl of the solution and the resulting mixture was shaken overnight. The solution was clarified by centrifugation at 1000 rpm for 10 minutes. Ten (10) μl of supernatant was removed, diluted with DMSO (100:1), and the concentration of dissolved K-252a determined by HPLC.
Same as example 7 except that Pluronic™ L61 was used instead of Pluronic™ F68.
Same as example 7 except that Pluronic™ L64 was used instead of Pluronic™ F68.
Same as example 7 except that Tween™ 20 was used instead of Pluronic™ F68.
Same as example 7 except that Tween™ 80 was used instead of Pluronic™ F68.
Same as example 7 except that PVP was used instead of Pluronic™ F68 and PEG-300 was used instead of PEG-400.
Same as example 12 except that PEG-400 was used instead of PEG-300 and indolocarbazoles A, B or C were each solubilized individually in addition to K-252a.
Same as example 12 except that PEG-600 was used instead of PEG-300 and indolocarbazoles A, B or C were each solubilized individually in addition to K-252
Same as example 12 except that PEG-1000 was used instead of PEG-300.
Ten (10) g of Triton X-100 was added to 38 ml of water and the mixture was stirred thoroughly.

[2] = cited from earlier work; for insolubility in water: Nakanishi et al.
[3] = peg 400/ba/pvp/h2o, Concentration Obtained
[4] = peg 600/ba/pvp/h2o, Concentration Obtained
[5] = peg 600/ba/pvp/h2o, Concentration Obtained (saturation level)
[6] = peg 1000/ba/pvp/h2o, Concentration Obtained
[7] = 50% peg 400, 50% h2o, Concentration Obtained, Example 1: 50% PEG 400, 50% H2O, target 10 mg/ml
[8] = 50% peg 600, 50% h2o, Concentration Obtained, Example 2: 50% PEG 600, 50% H2O, target 10 mg/ml
[9] = 50% peg 1000, 50% h2o, Concentration Obtained, Example 3: 50% PEG 1000, 50% H2O, target 10 mg/ml
[10] = peg 400/ba/h2o, Concentration Obtained, Example 4: 50% PEG 400, 2% BA, 48% H2O, target 10 mg/ml
[11] = peg 600/ba/h2o, Concentration Obtained, Example 5: 50% PEG 600, 2% BA, 48% H2O, target 10 mg/ml
[12] = peg 600/ba/pvp/h2o, Concentration Obtained (saturation level), Example 22: 50% PEG 600, 2% BA, 10% PVP, 38% H2O, 10 mg added
[13] = peg 1000/ba/h2o, Concentration Obtained, Example 6: 50% PEG 1000, 2% BA, 48% H2O, target 10 mg/ml

- Stability of Compound A in IPGC ([1]; 0 min): 100%
- loss of activity in IPGC ([1]; propylene glycol with pvp, 720 h): 13.3%
- solubility thermodynamic (physchem; [3]): 10000 µg/mL (≈ 22.1 mM)
- solubility thermodynamic (physchem; [4]): 10000 µg/mL (≈ 22.1 mM)
- solubility thermodynamic (physchem; [5]): 40000 µg/mL (≈ 88.2 mM)
- solubility thermodynamic (physchem; [6]): 10000 µg/mL (≈ 22.1 mM)
Structure (SMILES): COC1(CO)CC2OC1(C)n1c3ccccc3c3c4c(c5c6ccccc6n2c5c31)C(=O)NC4 (centres unmarked) [Compound A]

Structure (SMILES): COC(=O)C1(O)CC2OC1(C)n1c3ccccc3c3c4c(c5c6cc(O)ccc6n2c5c31)C(=O)NC4 (centres unmarked) [Compound B]
- solubility thermodynamic (physchem; [7]): 3150 µg/mL (≈ 6.52 mM)
- solubility thermodynamic (physchem; [8]): 2680 µg/mL (≈ 5.54 mM)
- solubility thermodynamic (physchem; [9]): 4440 µg/mL (≈ 9.18 mM)
- solubility thermodynamic (physchem; [10]): 3260 µg/mL (≈ 6.74 mM)
- solubility thermodynamic (physchem; peg 400/ba/pvp/h2o, Concentration Obtained, Example 13: 47.5% PEG 400, 2.5% BA, 2.5% PVP, 47.5% H2O, target 10 mg/ml): 10000 µg/mL (≈ 20.7 mM)
- solubility thermodynamic (physchem; [11]): 3590 µg/mL (≈ 7.43 mM)
- solubility thermodynamic (physchem; peg 600/ba/pvp/h2o, Concentration Obtained (saturation level), Example 20: 47.5% PEG 600, 2.5% BA, 2.5% PVP, 47.5% H2O, 10 mg added): 10000 µg/mL (≈ 20.7 mM)
- solubility thermodynamic (physchem; [12]): 16400 µg/mL (≈ 33.9 mM)
- solubility thermodynamic (physchem; peg 600/ba/pvp/h2o, Concentration Obtained, Example 14: 47.5% PEG 600, 2.5% BA, 2.5% PVP, 47.5% H2O, target 10 mg/ml): 10000 µg/mL (≈ 20.7 mM)
- solubility thermodynamic (physchem; [13]): 5020 µg/mL (≈ 10.4 mM)
- solubility thermodynamic (physchem; peg 1000/ba/pvp/h2o, Concentration Obtained, Example 19: 40% PEG 1000, 2% BA, 10% PVP, 48% H2O, target 10 mg/ml): 10000 µg/mL (≈ 20.7 mM)

- solubility thermodynamic (physchem; 50% peg 400, 50% h2o, Concentration Obtained): 750 µg/mL (≈ 1.34 mM)
- solubility thermodynamic (physchem; 50% peg 600, 50% h2o, Concentration Obtained): 500 µg/mL (≈ 0.897 mM)
- solubility thermodynamic (physchem; 50% peg 1000, 50% h2o, Concentration Obtained): 720 µg/mL (≈ 1.29 mM)
- solubility thermodynamic (physchem; peg 400/ba/h2o, Concentration Obtained): 1010 µg/mL (≈ 1.81 mM)
- solubility thermodynamic (physchem; [3]): 4000 µg/mL (≈ 7.17 mM)
- solubility thermodynamic (physchem; peg 600/ba/h2o, Concentration Obtained): 890 µg/mL (≈ 1.6 mM)
- solubility thermodynamic (physchem; [4]): 4600 µg/mL (≈ 8.25 mM)
- solubility thermodynamic (physchem; [5]): 4600 µg/mL (≈ 8.25 mM)
- solubility thermodynamic (physchem; peg 600/ba/triton x-100/h2o, Concentration Obtained): 4630 µg/mL (≈ 8.3 mM)
- solubility thermodynamic (physchem; peg 600/ba/tween 80/h2o, Concentration Obtained): 4790 µg/mL (≈ 8.59 mM)
- solubility thermodynamic (physchem; peg 1000/ba/h2o, Concentration Obtained): 800 µg/mL (≈ 1.43 mM)
- solubility thermodynamic (physchem; [6]): 6000 µg/mL (≈ 10.8 mM)
- solubility thermodynamic (physchem; peg 1000/ba/pvp/h2o, Concentration Obtained (saturation level)): 5000 µg/mL (≈ 8.97 mM)
Structure (SMILES): CC[S+]([O-])Cc1ccc2c(c1)c1c3c(c4c5ccccc5n5c4c1n2C1CC(O)(C(=O)OC)C5(C)O1)CNC3=O (centres unmarked) [Compound C]

Structure (SMILES): CC12OC(CC1(O)C(=O)O)n1c3ccccc3c3c4c(c5c6ccccc6n2c5c31)CNC4=O (centres unmarked) [Compound K-252b]
- solubility in non-aqueous, toxic solvents [2]: soluble in non-aqueous, toxic solvents

Structure (SMILES): O=C1NCc2c1c1c3ccccc3[nH]c1c1[nH]c3ccccc3c21 [Compound K-252c]
- insolubility in water [2]: insolubility
- solubility in non-aqueous, toxic solvents [2]: soluble in non-aqueous, toxic solvents
- solubility in water [2]: insoluble in water

Structure (SMILES): C[C@@H]1O[C@@H](n2c3ccccc3c3c4c(c5c6ccccc6[nH]c5c32)CNC4=O)[C@H](O)[C@H](O)[C@H]1O [Compound K-252d]
- insolubility in water [2]: insolubility
- solubility in non-aqueous, toxic solvents [2]: soluble in non-aqueous, toxic solvents
- solubility in water [2]: insoluble in water

Structure (SMILES): CN[C@@H]1C[C@H]2O[C@@](C)([C@@H]1OC)n1c3ccccc3c3c4c(c5c6ccccc6n2c5c31)C(=O)NC4 [Staurosporine, staurosporine]
- solubility thermodynamic (physchem; [7]): 710 µg/mL (≈ 1.52 mM)
- solubility thermodynamic (physchem; [8]): 1890 µg/mL (≈ 4.05 mM)
- solubility thermodynamic (physchem; [9]): 1650 µg/mL (≈ 3.54 mM)
- solubility thermodynamic (physchem; [10]): 1210 µg/mL (≈ 2.59 mM)
- solubility thermodynamic (physchem; [11]): 1890 µg/mL (≈ 4.05 mM)
- solubility thermodynamic (physchem; [12]): 8400 µg/mL (≈ 18 mM)
- solubility thermodynamic (physchem; peg 600/ba/pvp/h2o, Concentration Obtained, Example 18: 50% PEG 600, 2% BA, 10% PVP, 38% H2O, target 10 mg/ml): 8410 µg/mL (≈ 18 mM)
- solubility thermodynamic (physchem; peg 600/ba/triton x-100/h2o, Concentration Obtained, Example 16: 50% PEG 600, 2% BA, 10% Triton X-100, 38% H2O, target 10 mg/ml): 7590 µg/mL (≈ 16.3 mM)
- solubility thermodynamic (physchem; peg 600/ba/tween 80/h2o, Concentration Obtained, Example 17: 50% PEG 600, 2% BA, 10% Tween 80, 38% H2O, target 10 mg/ml): 4600 µg/mL (≈ 9.86 mM)
- solubility thermodynamic (physchem; [13]): 1680 µg/mL (≈ 3.6 mM)

Reference: US5599808A, “Aqueous indolocarbazole solutions” (Cephalon, Inc., priority 1995, dated 1997)
